Measured values published in EPA's ToxRefDB 2.

Assays:
rat [1] = settings: Subchronic oral toxicity in rodents, other, Feed, dose end: 3 month, group: systemic
dog [2] = settings: Chronic toxicity; beagle; Oral; Capsule; dose end: 12 month; group: systemic; systemic / in life observation / clinical signs / fur (altered appearance) + systemic / in life observation / clinical signs / skin …
rat [3] = settings: Multigenerational reproductive toxicity study, other, Oral, Feed, dose end: 2 generation
rabbit = settings: Prenatal developmental toxicity study, other, Oral, Gavage/Intubation, dose end: 19 GD
rat [4] = settings: Combined chronic toxicity/carcinogenicity, other, Oral, Feed, dose end: 2 year, group: systemic
mouse [5] = settings: Carcinogenicity, other, Oral, Feed, dose end: 18 month, group: systemic
dog [6] = settings: Subchronic oral toxicity in nonrodent, beagle, Capsule, dose end: 91 day, group: systemic
mouse [7] = settings: Carcinogenicity, b6c3f1, Oral, Gavage/Intubation, dose end: 18 month, group: systemic
rat [8] = settings: Carcinogenicity, fischer, Oral, Gavage/Intubation, dose end: 24 month, group: systemic
rat [9] = settings: Prenatal developmental toxicity study, fischer, Dermal, Topical, dose end: 15 GD, group: maternal
[10] = systemic / in life observation / body weight / body weight + systemic / pathology microscopic / liver / hypertrophy + systemic / pathology …
[11] = group: offspring, systemic / in life observation / body weight / offspring (pup) weight
[12] = group: offspring, systemic / in life observation / body weight / offspring (pup) weight + developmental / developmental landmark / eye opening / eye opening
[13] = group: parental, systemic / pathology microscopic / kidney / pigmentation + systemic / pathology microscopic / spleen / erythrophagocytosis
[14] = group: parental, systemic / pathology microscopic / kidney / pigmentation + systemic / pathology microscopic / spleen / erythrophagocytosis + systemic / in …
[15] = group: developmental, developmental / developmental malformation / bone / fused
[16] = group: maternal, systemic / in life observation / body weight / body weight gain + systemic / in life observation / food consumption / food consumption + …
[17] = systemic / in life observation / body weight / body weight + systemic / in life observation / body weight / body weight gain
[18] = systemic / in life observation / body weight / body weight + systemic / in life observation / body weight / body weight gain + systemic / in…
[19] = systemic / in life observation / body weight / body weight + systemic / in life observation / body weight / body weight gain + systemic / …
[20] = systemic / in life observation / clinical signs / vomitting + systemic / organ weight / liver / relative to body weight + systemic / …
[21] = systemic / organ weight / testes / relative to body weight
[22] = systemic / organ weight / testes / relative to body weight + systemic / pathology microscopic / liver / carcinoma + systemic / hematology / …
[23] = systemic / in life observation / body weight / body weight gain + systemic / in life observation / clinical signs / labored respiration + …
[24] = systemic / organ weight / stomach / relative to body weight + systemic / in life observation / body weight / body weight gain
[25] = systemic / in life observation / clinical signs / scabbing

**Q.** For `CO/N=C(/C(=O)OC)c1ccccc1CO/N=C(\C)c1cccc(C(F)(F)F)c1` [Trifloxystrobin], which NEL (rat [1]; systemic / clinical chemistry / urea nitrogen / urea + systemic / urinalysis / ph / ph + systemic / clinical chemistry / glucose / glucose…) is on record?
**A.** 618 mg/kg/day

**Q.** What about the LOAEL (rat [1]; [10]) of the same compound?
**A.** 127 mg/kg/day

**Q.** What about the NOAEL (rat [1]; [10]) of the same compound?
**A.** 30.6 mg/kg/day

**Q.** What about the LEL (dog [2]) of the same compound?
**A.** 50 mg/kg/day

**Q.** What about the LOAEL (dog [2]) of the same compound?
**A.** 50 mg/kg/day

**Q.** And the NEL (dog [2])?
**A.** 5 mg/kg/day

**Q.** And the NOAEL (dog [2])?
**A.** 5 mg/kg/day

**Q.** And the LEL (rat [3]; [11])?
**A.** 65.5 mg/kg/day

**Q.** And the LOAEL (rat [3]; [11])?
**A.** 65.5 mg/kg/day

**Q.** What about the NEL (rat [3]; [12]) of the same compound?
**A.** 4.2 mg/kg/day

**Q.** What about the NOAEL (rat [3]; [12]) of the same compound?
**A.** 4.2 mg/kg/day

**Q.** What about the LEL (rat [3]; [13]) of the same compound?
**A.** 55.3 mg/kg/day

**Q.** What about the LOAEL (rat [3]; [13]) of the same compound?
**A.** 55.3 mg/kg/day

**Q.** And the NEL (rat [3]; [14])?
**A.** 3.8 mg/kg/day

**Q.** What about the NOAEL (rat [3]; [14]) of the same compound?
**A.** 3.8 mg/kg/day

**Q.** What about the LEL (rabbit; [15]) of the same compound?
**A.** 500 mg/kg/day

**Q.** And the LOAEL (rabbit; [15])?
**A.** 500 mg/kg/day

**Q.** And the NEL (rabbit; [15])?
**A.** 250 mg/kg/day

**Q.** And the NOAEL (rabbit; [15])?
**A.** 250 mg/kg/day

**Q.** What about the LEL (rabbit; [16]) of the same compound?
**A.** 50 mg/kg/day

**Q.** And the LOAEL (rabbit; [16])?
**A.** 50 mg/kg/day

**Q.** What about the NEL (rabbit; [16]) of the same compound?
**A.** 10 mg/kg/day

**Q.** What about the NOAEL (rabbit; [16]) of the same compound?
**A.** 10 mg/kg/day

**Q.** What about the LEL (rat [4]; [17]) of the same compound?
**A.** 29.7 mg/kg/day

**Q.** What about the LOAEL (rat [4]; [17]) of the same compound?
**A.** 29.7 mg/kg/day

**Q.** And the NEL (rat [4]; [18])?
**A.** 9.81 mg/kg/day

**Q.** And the NOAEL (rat [4]; [18])?
**A.** 9.81 mg/kg/day

**Q.** What about the LEL (mouse [5]; [17]) of the same compound?
**A.** 35.7 mg/kg/day

**Q.** And the LOAEL (mouse [5]; [17])?
**A.** 35.7 mg/kg/day

**Q.** What about the NEL (mouse [5]; [19]) of the same compound?
**A.** 3.51 mg/kg/day

**Q.** And the NOAEL (mouse [5]; [19])?
**A.** 3.51 mg/kg/day

**Q.** And the LEL (dog [6]; systemic / clinical chemistry / bilirubin / total bilirubin)?
**A.** 30 mg/kg/day

**Q.** And the LOAEL (dog [6]; [20])?
**A.** 150 mg/kg/day

**Q.** And the NEL (dog [6]; [20])?
**A.** 5 mg/kg/day

**Q.** What about the NOAEL (dog [6]; [20]) of the same compound?
**A.** 30 mg/kg/day

**Q.** What does the source list for `CCCCC(CC)CO` (stereo unspecified) [2-Ethyl-1-hexanol]?
**A.** LEL (mouse [7]; [21]): 50 mg/kg/day; NEL (mouse [7]; [21]): < 50 mg/kg/day; LOAEL (mouse [7]; [22]): > 750 mg/kg/day; NOAEL (mouse [7]; [22]): ≥ 750 mg/kg/day; LOAEL (rat [8]; [23]): > 500 mg/kg/day; NOAEL (rat [8]; [23]): ≥ 500 mg/kg/day; LEL (rat [8]; [24]): 50 mg/kg/day; NEL (rat [8]; [24]): < 50 mg/kg/day; LOAEL (rat [9]; systemic / in life observation / clinical signs / erythema + systemic / in life observation / clinical signs / scabbing + systemic / …): 840 mg/kg/day; LEL (rat [9]; [25]): 252 mg/kg/day; NEL (rat [9]; [25]): < 252 mg/kg/day
